Values of other authors as cited in patent US6576415B2, “Photothermographic materials with increa sed photosensitivity” (priority 2000, dated 2003).
Read-outs that look alike come from different tables or passages of the source.

SMILES	Solubility in water (at 15° C.) [µg/mL]	Solubility in water (at 20° C.) [µg/mL]
[Ag+].[Ag+].[O]=[W](=[O])([O-])[O-] [silver tungstate]	500	–
O=P(=O)[O-].[Ag+] [silver metaphosphate]	–	3200
